Reference: patent US11306098B2, “Substituted pyrrolo[1,2-a]pyrazines and pyrrolo[1,2-a][1,4]diazepines as TREX1 inhibitors” (VENENUM BIODESIGN, LLC, priority 2019, dated 2022)
Structures can show the parent of a compound that is named as a salt. Where two headings read alike, the source gives them in different places.

What was measured:
human TREX1 = human TREX1 (Homo sapiens (Human), UniProt Q9NSU2); experiment: TREX1 Exonuclease Assay (human enzyme); format: biochemical; conditions: human TREX1 0.5 nM, FAM/BHQ1-labeled DNA oligonucleotide
human TREX1, sequence (Q9NSU2 1-242): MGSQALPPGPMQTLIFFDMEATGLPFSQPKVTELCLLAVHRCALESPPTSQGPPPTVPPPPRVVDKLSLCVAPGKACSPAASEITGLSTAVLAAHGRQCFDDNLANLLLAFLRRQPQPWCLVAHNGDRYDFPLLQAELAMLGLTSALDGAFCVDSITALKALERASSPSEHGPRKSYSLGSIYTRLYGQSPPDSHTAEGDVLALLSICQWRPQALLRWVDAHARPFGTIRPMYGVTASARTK
Method: (§1) The TREX1 Exonuclease assay is an exemplary in vitro assay for measuring the activity of the TREX1 inhibitors of the present invention. In this assay, TREX1 exonuclease activity was evaluated by measuring the increase in fluorescence resulting from TREX1-catalyzed removal of a quencher from the 3′ end of a FAM-labeled DNA oligonucleotide (5′FAM-CCA CGA GAG CGT-BHQ1-3′). The assay was conducted using Wild Type (WT) human or murine TREX1 enzyme constructs corresponding to amino acids 55-297 of UniProt ID Q9NSU2-1 (SEQ ID NO: 1), or amino acids 1-242 of UniProt ID Q91XB0-1 (SEQ ID NO: 2), respectively. See, e.g., Example A.
(§2) For human TREX1, the nucleotide sequence of the gene construct was codon optimized for expression in the bacterial host. The sequence was incorporated into the pMAL-c5e vector (NEB) downstream of a solubility-promoting MBP (maltose binding protein) fusion partner. The fusion protein product was expressed in E. coli strain BL21 (DE3) (Millipore) and purified in a series of chromatographic steps. Initial steps were conducted using a dextrin sepharose affinity column followed by a Q-sepharose ion exchange column (both GE Healthcare). After the second column the MBP partner was removed by incubation with enterokinase (NEB). Further purification was carried out with the second application of a Q-sepharose column followed by a Superdex 75 (GE Healthcare) size exclusion column. Finally, a heparin sepharose column (GE Healthcare) was applied to remove contaminating nucleotides. Similar methods were used in the preparation of the murine TREX1 enzyme and are described in Example B set forth below.
(§3) To evaluate the effect of compounds on TREX1 activity, test compounds were serially diluted (11-point, 3-fold) from 10 mM stock solutions and delivered to 384-well low-volume assay plates in 80 nL DMSO using an acoustic dispenser. Next, 4 μL of human TREX1 (0.5 nM), or murine TREX1 (1 nM), diluted in assay buffer (20 mM Tris pH 7.5, 5 mM MgCl2, 100 μg/mL BSA, 0.002% Triton X-100, 2 mM DTT), was added to the assay plate. After incubating for 30 minutes, 4 μL of labeled DNA oligonucleotide (500 nM) in assay buffer was added to initiate TREX1 exonuclease activity. The reaction was allowed to proceed for 45 minutes at room temperature prior to the addition of 4 μL of 150 mM EDTA to halt TREX1 activity. Assay plates were equilibrated for an additional 30 minutes and read on an EnVision Plate Reader (Perkin Elmer) to measure fluorescence emission at 535 nm following excitation at 485 nm. Fluorescence was plotted as a function of log molar compound concentration and fit to four-parameter dose-response equation to determine compound IC50.

murine TREX1 = murine TREX1 (Mus musculus (Mouse), UniProt Q91XB0); experiment: TREX1 Exonuclease Assay (murine enzyme); format: biochemical; conditions: murine TREX1 1 nM, FAM/BHQ1-labeled DNA oligonucleotide
murine TREX1, sequence (Q91XB0 1-242): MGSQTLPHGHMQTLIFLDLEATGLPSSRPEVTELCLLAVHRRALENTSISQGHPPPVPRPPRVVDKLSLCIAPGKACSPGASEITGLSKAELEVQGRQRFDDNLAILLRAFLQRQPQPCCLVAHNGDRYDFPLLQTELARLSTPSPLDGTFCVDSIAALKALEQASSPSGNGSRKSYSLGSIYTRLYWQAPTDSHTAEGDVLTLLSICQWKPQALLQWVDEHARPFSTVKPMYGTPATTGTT
Method: as §1, §2, §3

cleaved human TREX1 = cleaved human TREX1 (Homo sapiens (Human), UniProt Q9NSU2); experiment: TREX1 Thermal Shift Binding Assay (human); conditions: 100 μM compound, 5 μM TREX1
cleaved human TREX1, sequence (Q9NSU2 1-242): as the sequence (Q9NSU2 1-242) above
Method: (§4) Example B is a protein thermal shift assay used to assess the binding of TREX1 inhibitors to TREX1 protein. In this assay, TREX1 protein unfolding with increasing temperature was measured in the presence and absence of TREX1 inhibitors by following the increase in fluorescence of a thiol-reactive dye (e.g BODIPY FL-cystine) as it reacts with exposed TREX1 cysteine residues. The assay was conducted using human (SEQ ID NO: 1), or murine (SEQ ID NO: 2) TREX1 protein constructs.
(§5) The thermal shift assays used recombinant protein corresponding to human (SEQ ID NO: 1) and murine (SEQ ID NO: 2) TREX1. The protein encoding plasmid contained a N-terminal MBP (maltose binding protein) tag followed by the TREX1 coding sequence within the pMAL-c5E vector. The plasmid was transfected into a BL21 (DE3) E. coli expression strain. Protein was purified from the bacterial lysate using an Amylose resin column. The MBP tag was cleaved from the purified protein using recombinant enterokinase (EMD Millipore #69066-3). The cleaved TREX1 protein was further purified on a Q-Sepharose column followed by a heparin column.
(§6) Binding of compounds to both human and murine TREX1 were measured by protein thermal shift assays. (Huynh K, Partch C L. Current Protocols in Protein Science: Analysis of protein stability and ligand interactions by thermal shift assay. Current protocols in protein science/editorial board, John E Coligan. [et al]. 2015; 79:28.9.1-28.9.14. doi:10.1002/0471140864.ps2809s79.). Thermal shift assays were conducted in sealed 96-well PCR plates containing 5 μM TREX1 protein, 100 μM compound, and 2 μM BODIPY FL-cystine (Sigma) in either 20 μL assay buffer (20 mM Tris, 7.5, 5 mM MgCl2, 0.002% Triton X-100) or 20 μL phosphate buffered saline (PBS). Using a RT-qPCR machine (Mx3005P, Stratagene) changes in fluorescence (excitation at 492 nm and emission at 516 nm) were monitored as temperature was increased from 25° C. to 96° C. at a rate of 1° C. every 2 minutes. Tm values were calculated from the first derivative plot of fluorescence intensity versus temperature. The results shown in Table 6 indicate the examples bind to human TREX1 and murine TREX1. ND indicates assay was not done.

cleaved mouse TREX1 = cleaved mouse TREX1 (Mus musculus (Mouse), UniProt Q91XB0); experiment: TREX1 Thermal Shift Binding Assay (mouse); conditions: 100 μM compound, 5 μM TREX1
cleaved mouse TREX1, sequence (Q91XB0 1-242): as the sequence (Q91XB0 1-242) above
Method: as §4, §5, §6

[1] = PBS, read-out: Thermal shift cleaved human TREX1, (ΔTm ° C.) PBS
[2] = assay buffer, read-out: Thermal shift cleaved human TREX1, (ΔTm ° C.) Assay buffer
[3] = PBS, read-out: Thermal shift cleaved mouse TREX1, (ΔTm ° C.) PBS
[4] = assay buffer, read-out: Thermal shift cleaved mouse TREX1, (ΔTm ° C.) Assay buffer

Compound	IC50 (human TREX1) [µM]	IC50 (murine TREX1) [µM]	ΔTm at 100 µM (cleaved human TREX1; [1]) [°C]	ΔTm at 100 µM (cleaved human TREX1; [2]) [°C]	ΔTm at 100 µM (cleaved mouse TREX1; [3]) [°C]	ΔTm at 100 µM (cleaved mouse TREX1; [4]) [°C]
N[C@@H]1C[C@H]2C(=O)N([C@H](CCC(=O)O)C(=O)NCc3ccc(C(F)(F)F)cc3)CCC(CCc3ccccc3)N2C1 (single isomer, unassigned) [Example 2B]	< 1	< 1	> 8	> 8	4 to 8	4 to 8
N[C@@H]1C[C@H]2C(=O)N([C@H](CO)C(=O)NCc3ccc(Cl)c(Cl)c3)CCC(CCc3ccccc3)N2C1 (stereo partly drawn) [Example 3, (2R)-2-((8R,9aS)-8-amino-1-oxo-5-phenethylhexahydro-1H-pyrrolo[1,2-a][1,4]diazepin-2(3H)-yl)-N-(3,4-dichlorobenzyl)-3-hydroxypropanamide.HCl]	–	–	> 8	> 8	4 to 8	4 to 8
CC(C)C[C@H](C(=O)NCc1cnccn1)N1CCC(CCc2ccccc2)N2C[C@H](N)C[C@H]2C1=O (some centres unmarked) [Example 28]	1 to 9.99	10 to 100	–	–	–	–
CC(C)C[C@H](C(=O)NCc1ccc(Cl)cc1)N1CCC(CCc2ccccc2)N2C[C@H](N)C[C@H]2C1=O (some centres unmarked) [Example 46]	< 1	1 to 9.99	–	–	–	–
CC(C)C[C@H](C(=O)NCC1CCCCC1)N1CCC(CCc2ccccc2)N2C[C@H](N)C[C@H]2C1=O (some centres unmarked) [Example 12]	10 to 100	10 to 100	–	–	–	–
CC(C)C[C@H](C(=O)NS(=O)(=O)c1ccc(Cl)c(Cl)c1)N1CCC(CCc2ccccc2)N2C[C@H](N)C[C@H]2C1=O (some centres unmarked) [Example 39]	< 1	< 1	–	–	–	–
CC(C)C[C@H](C(=O)NCc1ccc(F)cc1)N1CCC(CCc2ccccc2)N2C[C@H](N)C[C@H]2C1=O (some centres unmarked) [Example 34]	< 1	1 to 9.99	–	–	–	–
CC(C)C[C@H](C(=O)NCc1ccc(Cl)c(Cl)c1)N1CCC(COc2ccccc2)N2C[C@H](N)C[C@H]2C1=O (some centres unmarked) [Example 19]	< 1	1 to 9.99	–	–	–	–
CC(C)C[C@H](C(=O)NCCc1ccc(Cl)c(Cl)c1)N1CCC(CCc2ccccc2)N2C[C@H](N)C[C@H]2C1=O (some centres unmarked) [Example 37]	< 1	1 to 9.99	–	–	–	–
CC(C)C[C@H](C(=O)N[C@H](C)c1ccccc1)N1CCC(CCc2ccccc2)N2C[C@H](N)C[C@H]2C1=O (some centres unmarked) [Example 24]	10 to 100	10 to 100	–	–	–	–
N[C@@H]1C[C@H]2C(=O)N([C@H](CCC(=O)O)C(=O)NCc3ccc(C(F)(F)F)cc3)CCC(CCc3ccccc3)N2C1 (single isomer, unassigned) [Example 2A]	10 to 100	10 to 100	–	–	–	–
CC(C)C[C@H](C(=O)NCc1ccc(Cl)c(Cl)c1)N1CCC(CCc2ccccc2)N2C[C@H](N)C[C@H]2C1=O (stereo partly drawn) [Example 1, (2R)-2-((8R,9aS)-8-amino-1-oxo-5-phenethylhexahydro-1H-pyrrolo[1,2-a][1,4]diazepin-2(3H)-yl)-N-(3,4-dichlorobenzyl)-4-methylpentanamide.HCl]	–	–	> 8	> 8	4 to 8	4 to 8
CC(=O)N[C@@H]1C[C@H]2C(=O)N([C@H](CC(C)C)C(=O)NCc3ccc(Cl)c(Cl)c3)CCC(CCc3ccccc3)N2C1 (stereo partly drawn) [Example 20, (2R)-2-((8R,9aS)-8-acetamido-1-oxo-5-phenethylhexahydro-1H-pyrrolo[1,2-a][1,4]diazepin-2(3H)-yl)-N-(3,4-dichlorobenzyl)-4-methylpentanamide HCl]	1 to 9.99	10 to 100	–	–	–	–
N[C@@H]1C[C@H]2C(=O)N([C@H](CCc3nsc(=O)[nH]3)C(=O)NCc3ccc(Cl)c(Cl)c3)CCC(CCc3ccccc3)N2C1 (some centres unmarked) [Example 38]	< 1	< 1	–	–	–	–
CC(C)C[C@H](C(=O)NCc1ccc(Cl)c(Cl)c1)N1CCC(CSc2ccccc2)N2C[C@H](N)C[C@H]2C1=O (some centres unmarked) [Example 18]	< 1	< 1	–	–	–	–
CC(C)C[C@H](C(=O)NCc1cccc(Cl)c1)N1CCC(CCc2ccccc2)N2C[C@H](N)C[C@H]2C1=O (some centres unmarked) [Example 26]	< 1	1 to 9.99	–	–	–	–
CC(C)C[C@H](C(=O)NCCc1ccccc1)N1CCC(CCc2ccccc2)N2C[C@H](N)C[C@H]2C1=O (some centres unmarked) [Example 23]	1 to 9.99	10 to 100	–	–	–	–
CC(C)C[C@H](C(=O)NCc1ccc(Cl)cc1Cl)N1CCC(CCc2ccccc2)N2C[C@H](N)C[C@H]2C1=O (some centres unmarked) [Example 31]	< 1	1 to 9.99	–	–	–	–
CC(C)C[C@H](C(=O)NCc1ccc(Cl)c(Cl)c1)N1CCC(C)N2C[C@H](N)C[C@H]2C1=O (some centres unmarked) [Example 13]	10 to 100	10 to 100	–	–	–	–
CC(C)C[C@H](C(=O)N[C@@H](C)c1ccccc1)N1CCC(CCc2ccccc2)N2C[C@H](N)C[C@H]2C1=O (some centres unmarked) [Example 25]	10 to 100	10 to 100	–	–	–	–
CC(C)C[C@H](C(=O)NCc1ccc(C#N)cc1)N1CCC(CCc2ccccc2)N2C[C@H](N)C[C@H]2C1=O (some centres unmarked) [Example 32]	1 to 9.99	10 to 100	–	–	–	–
N[C@@H]1C[C@H]2C(=O)N([C@H](Cc3ccc(O)cc3)C(=O)NCc3ccc(Cl)c(Cl)c3)CCC(CCc3ccccc3)N2C1 (some centres unmarked) [Example 4]	< 1	< 1	> 8	> 8	4 to 8	4 to 8
